The values that follow come from patent US6703362B1, “Random peptides that bind to gastro-intestinal tract (GIT) transport receptors and related methods” (Cytogen Corporation, priority 1997, dated 2004).

One may read the fraction remaining as the share of the starting amount still present when the sample was taken.

Square brackets hold non-standard residues; d marks the D form. Peptide text beside a SMILES is read from it. * marks the point of attachment. Dansyl = CN(C)c1cccc2c(S(=O)(=O)*)cccc12

Series [1] in a line: Peptide stability in simulated intestinal fluid (SIF). Format: in vitro ADME. The method, then: The relative stability for ZElanO3l, ZElanO53 and ZElan054 was determined in simulated intestinal fluid (SIF) SIF was made by dissolving 100 mg of pancreatin (Sigma cat#P-1625, lot# 122H0812)in 8.4 ml of phosphate stock solution, adjusting the pH to 7.5 with 0.2N NaOH and adjusting the volume to 10 ml with water.
Peptide (3.25 mg) was dissolved in 3.25 ml of 10,000 fold diluted SIF solution at 37° C. Aliquots (0.7 ml) of the digestion solution were then withdrawn at <1 min, 1 h, 3 h, and 21 h or 24 h. The samples were quickly passed through a syringe filter (Millipore Millex-GV 0.22 μm, part# SLGV025LS, lot# H2BM95250) and 300 μL of the filtered solution was immediately injected onto a Hewlett-Packard HPLC system equipped with a C-8 column (Applied Biosystems column and guard column: column-p/n 0711-0023 Spheri-5 ODS 5 μm, 220×4.6 mm). The products were eluted at 1.5 ml/min using an acetonitrile-water gradient. The major fluorescent peaks were collected, lyopholized and identified by MS analysis.

For series [2], the system named is P100 fractions harvested from Caco-2 cells. The series is described as follows: Binding of dansylated peptides to P100 fractions and peptide/particle correlation. The method, then:
Caco-2 cell membrane (P100) and cytosolic (S100) fractions were prepared using a modification of the method described in Kinsella, B. T., O'Mahony, D. J. and G. A. FitzGerald, 1994, J. Biol. Chem. 269(47): 29914-29919. Confluent Caco-2 cell monolayers (grown in 75 cm^2 flasks for up to 1 week at 37° C. and 5% CO2) were washed twice in Dulbecco's PBS (DPBS) and the cells were harvested by centrifugation at 1000 rpm after treatment with 10 mM EDTA-DPBS. The cells were washed 3 times in DPBS and the final cell pellet was resuspended in 3 volumes of ice cold HED buffer (20 mM HEPES (pH 7.67), 1 mM EGTA, 0.5 mM dithiothreitol, 1 mM phenylmethylsulphonyl fluoride (PMSF)). The cells were allowed to swell for 5 min on ice prior to homogenization for 30 sec. The homogenates were centrifuged at 40,000 rpm for 45 min at 4° C. The supernatant (S100) was removed and the pellet (P100) was resuspended in HEDG buffer (20 mM HEPES (pH 7.67), 1 mM EGTA, 0.5 mM dithiothreitol, 100 mM NaCl, 10% glycerol, 1 mM PMSF). Protein concentrations were determined using the Bradford assay (Bradford, M. M., 1976, Anal. Biochem. 72: 248-254).
Binding of peptide and/or peptide-coated PLGA particles to membrane (P100) and cytosolic (S100) fractions was assessed by detection of the dansyl moiety incorporated in the peptide. Costar ninety six well ELISA plates were coated with S100 and P100 fractions (100 μg/ml in 0.05 M NaHCO3) overnight at 4° C. The plates were blocked with 0.5% bovine serum albumin in DPBS for 1 h at room temperature and washed 3 times in 1% BSA-DPBS. […] After washing 3 times in 1% BSA-DPBS 100 μl of TMB substrate (3,3′,5′,5-tetramethylbenzidine; Microwell Peroxidase Substrate System (Kirkegaard and Perry Laboratories 50-76-00)) was added and the optical density was measured at 650 nm at various time intervals.
Binding of dansylated peptides to P100 fractions was assessed to determine if peptide binding was predictive of peptide-coated particle binding.

Series [3] concerns fixed Caco-2 cells. Nature of the series: Inhibition of GST-peptide fusion binding to fixed Caco-2 cells by synthetic peptides. To be noted: peptide from 100 μg/ml serially diluted; GST fusion 10 μg. An excerpt:
Caco-2 cells were fixed, treated with phenylhydrazine and blocked as described above. […] GST-PAX2 binding was inhibited by ZElan032, ZElan033, and ZElan035.

In series [4] the test system is ZElan024 (P31), ZElan018 (PAX2), ZElan021 (HAX42). The series is described as follows: Crossreactive binding of GST fusions to dansylated peptides. To be noted: 0.5 μg/ml concentration used in competition assays.
In series [5] the test system is polarized Caco-2 monolayers. Nature of the series: Transport of GST-peptide fusions across polarized Caco-2 monolayers (anti-GST ELISA). The series is classed as in vitro ADME. The method, then:
Transport and uptake of GST-peptide fusions and deletion derivatives across cultured polarized Caco-2 monolayers over 4 hours in HBSS buffer was examined using an anti-GST ELISA assay. In another experiment, transport and uptake of GST-peptide fusions and deletion derivatives across cultured polarized Caco-2 monolayers over 24 hours in serum-free medium (SFM) was examined using an anti-GST ELISA assay.
a) 4 h HBSS study: […] (TER) across the Caco-2 monolayers grown on snapwells (passage 33; 23 days old) was measured to confirm monolayer integrity before beginning the experiment. The medium was removed and the cells were washed once with bHBSS. bHBSS containing 100 μM chloroquine was added and the cells were incubated for 2 h at 37° C. The bHBSS+chloroquine was replaced with 0.5 ml bHBSS containing GST-peptide fusions (10 μg/ml) and the cells were incubated as before. […] At 4h, TER was measured, the apical medium was sampled and the apical reservoir was washed 6 times with HBSS. […]
b) 24 h SFM study: Transepithelial electrical flux (TER) across the Caco-2 monolayers grown on snapwells (passage 33; 23 days old) was measured to confirm monolayer integrity before beginning the experiment. […] After 24 hours, TER readings were taken, and samples from the basolateral and apical reservoirs were removed. […]
(Caco-2 cells form a polarised layer with tight junctions and transporters.)

For series [6], the system named is fixed Caco-2 or C2BBe1 cells. The series is described as follows: ELISA of GST fusion proteins on fixed Caco-2 or C2BBe1 cells. The series is classed as binding. The method, then: Fixed Caco-2, C2BBe1, and A431 cell plates were prepared by growing cells on tissue culture treated microtiter plates. When cells were confluent, plates were fixed with 10% formaldehyde, washed twice with PBS and stored with 0.5%BSA-PBS at −20° C. […] The standard ELISA procedure was followed at this point.
The standard ELISA procedure was modified as follows. GST proteins were diluted to an appropriate concentration in PBS containing lkBSA and 0.05% Tween20 (1%BPT), titered and incubated one hour at room temperature. Following five washes an anti-GST monoclonal antibody was added (Sigma, St. Louis Clone GST-2 diluted 1:10,000 in 1%BPT) and incubated one hour. After five more washes goat anti-mouse IgG2b-HRP was added (Southern Biotechnology Associates Inc., Birmingham, Ala., diluted 1:4000 in 1%BPT) and incubated one hour. After five washes plates were developed with TMB peroxidase substrate (Kirkegard and Perry, Gaithersburg, Md.). All data is presented with background binding subtracted.
On the technique in general: ELISA stands for enzyme-linked immunosorbent assay.

Series [7] deals with P100 membrane fractions derived from Caco-2 cells. Nature of the series: Dansylated peptide ELISA: relative binding of PAX2 and HAX42 peptides to P100 (ratio to ZElan021). To be noted: ratio to ZElan021 = 1.00. A digest of the protocol: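 P100 membrane fraction from Caco-2 cells (normally 100 μg/ml) coated in carbonate buffer pH9.6, blocked with 2% Marvel/PBS, then incubated with dansylated peptides. Detection via anti-mouse HRP conjugate and TMB, OD read at 650nm; binding expressed relative to ZElan021.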

Series [8] has as its system fixed Caco-2 cells. The series is described as follows: Effect of thrombin cleavage on binding of GST-peptide fusions to fixed Caco-2 cells. The conditions noted are these: thrombin 18 h at room temperature. The method, then: Binding of intact and thrombin-cleaved GST-peptide fusions to fixed Caco-2 cells was compared.
Thirty micrograms of each GST-peptide was treated with bovine thrombin (1 μ/ml; 0.4 NIH units; Sigma CN.T9681) for 18 h at room temperature in 2OmM Tris-HCl pH8.0, 150 mM NaCl, 2.5 mM CaCl2. Controls were similarly treated without addition of thrombin. Ten micrograms of each GST-peptide fusion was removed for PAGE analysis, and 10 μg of fusions were added in duplicate to the fixed Caco-2 cells before 5-fold serial dilutions (1% BPT diluent). The fusions were allowed to bind for 1 h at room temperature. Following 6 washes with 1% BPT, binding was assayed by ELISA.

Regarding `C[C@@H](O)[C@H](NC(=O)[C@@H](N)CCCCNS(=O)(=O)c1cccc2c(N(C)C)cccc12)C(=O)N[C@H](CCCNC(=N)N)C(=O)N[C@@H](CCCCN)C(=O)N[C@@H](CO)C(=O)N[C@@H](CO)C(=O)N[C@H](CCCNC(=N)N)C(=O)N[C@@H](CO)C(=O)N[C@@H](CC(N)=O)C(=O)N1CCC[C@H]1C(=O)N[C@H](CCCNC(=N)N)C(=O)NCC(=O)N[C@H](CCCNC(=N)N)C(=O)N[C@H](CCCNC(=N)N)C(=O)N[C@@H](Cc1c[nH]cn1)C(=O)N1CCC[C@H]1C(=O)NCC(N)=O` [ZElan053, H2N—K(dns)TrKSSrSNPrGrrHPG—CONH2] (H-K(Dansyl)T[dR]KSS[dR]SNP[dR]G[dR][dR]HPG-NH2), the “Rel. Stab.” value in series [1] (rank, 1 = most stable to SIF) is reported as 1. In series [1] (simulated intestinal fluid (pancreatin), pH 7.5, 10,000 fold diluted SIF, 37° C., read-out: Percent Remaining at: 1 m), the fraction remaining at 1 min, 1 mg/ml was 100%. In addition, the amount remaining at 1 h, 1 mg/ml in series [1] (simulated intestinal fluid (pancreatin), pH 7.5, 10,000 fold diluted SIF, 37° C., read-out: Percent Remaining at: 1 h) was 98.3%. Besides, in series [1] (simulated intestinal fluid (pancreatin), pH 7.5, 10,000 fold diluted SIF, 37° C., read-out: Percent Remaining at: 3 h), the share remaining at 3 h, 1 mg/ml was 98.1%. In series [1] (simulated intestinal fluid (pancreatin), pH 7.5, 10,000 fold diluted SIF, 37° C., read-out: Percent Remaining at: 24 h), the amount remaining at 24 h, 1 mg/ml is 94%. Further, the “binding of dansylated peptide to P100 compared to scrambled PAX2 control” value (shortened to “binding … compared to scrambled PAX2 control”) in series [2] (initial assay) is reported as “binding at the highest dilution only”. The “inhibition of GST-P31 binding” value with fixed Caco-2 cells [3] is on record as “inhibited”.
In the case of “gst-SARDSGPAEDGSRAVRLNGVENANTRKSSRSNPRGRRHP [GST-P31]”, in series [4], the “crossreactive binding to ZElan024 (P31) and ZElan018 (PAX2)” value was “no crossreactive binding”. For the same compound, the “flux relative to GST alone” value in series [5] was “higher flux than GST alone”. For the same compound, the “binding to fixed Caco-2 or C2BBe1 cells relative to GST control” value in series [6] is “bound fixed Caco-2 or C2BBe1 cells”.
Take “H-K(Dansyl)STPPSREAYSRPYSVDSDSDTNAKHSSHNRRLRTRSRPNG-NH2 [ZElan018]”: the “binding … compared to scrambled PAX2 control” value in series [2] (repeat assay) is given as “indistinguishable from the scrambled PAX2 control”. The “inhibition of GST-HAX42 binding” value with fixed Caco-2 cells [3] is “inhibited”. The “Binding value at 20 μg/ml” value in series [7] (PAX2 peptides, first 20 μg/ml column) is listed as −0.33; in series [7] (PAX2 peptides, second 20 μg/ml column), 1.07. For the same compound, the “Binding value at 50 μg/ml” value in series [7] (PAX2 peptides, first 50 μg/ml column) came out at 0.95; in series [7] (PAX2 peptides, second 50 μg/ml column) it was 1.01.
As to “H-K(Dansyl)SDHALGTNLRSDNAKEPGDYNCCGNGNSTGRKVFNRRRPSAIPT-NH2 (cysteines drawn unpaired) [ZElan021]”, the “binding … compared to scrambled PAX2 control” value in series [2] (initial assay) is given as “strong binding”. In addition, the “inhibition of GST-HAX42 binding” value with fixed Caco-2 cells [3] is “not inhibited”. For the same compound, in series [7] (HAX42 peptides), the “Binding value at 20 μg/ml” value was determined as 1.00. Further, the “Binding value at 25 μg/ml” value in series [7] (HAX42 peptides, first 25 μg/ml column) was found to be 1.00; in series [7] (HAX42 peptides, second 25 μg/ml column), 1.00; in series [7] (HAX42 peptides, third 25 μg/ml column), 1.00. The “Binding value at 50 μg/ml” value in series [7] (HAX42 peptides, first 50 μg/ml column) is on record as 1.00; in series [7] (HAX42 peptides, second 50 μg/ml column) it was 1.00.
Consider “gst-RYKHDIGCDAGVDKKSSSVRGGCGAHSSPPRAGRGPRGTMVSRL [GST-DCX8]”, for which, in the series on fixed Caco-2 cells [8], the “effect of thrombin cleavage on detection of binding” value was “significantly reduced detection of binding”. Besides, the “flux relative to GST alone” value in series [5] is “higher flux than GST alone”. Besides, the “binding to fixed Caco-2 or C2BBe1 cells relative to GST control” value in series [6] is on record as “bound fixed Caco-2 or C2BBe1 cells”.
